Data: patent EP4781993A1, “ANTIBACTERIAL COMPOSITION AND ANTIBACTERIAL DRUG” (Shenzhen China Resources Gosun Pharmaceuticals Co., Ltd., priority 2023, dated 2025)
Where a name gives a salt, the structure may show the parent alone. Read-outs that look alike come from different tables or passages of the source.

Tests used:
[1] = test system: OXA-232 producing Klebsiella pneumoniae; assay: Broth-microdilution MIC (CLSI M07-A11) against clinical isolates; type: cell-based; set-up: Drug concentration: unit: mg/L; details: for MIC range / Mode / MIC50 / MIC90: 12 strains; for MIC range / MIC50 / MIC90: MIC = ceftobiprole concentration (groups A2, B2, C2, D2, E2: inhibitor alone); for Mode: mode of MIC; for antibacterial activity: verdict in words; for MIC50 / MIC90: Klebsiella pneumoniae; for Drug concentration: unit not given in Table 3
Excerpt: (§1) As recommended by CLSI (Clinical and Laboratory Standards Institute) M07-A11 (2018 edition), the Broth-microdilution method is adopted to determine the minimum inhibitory concentration (MIC) of ceftobiprole and zidebactam against clinical isolates. It should be noted that, in the present disclosure, MIC50 refers to the minimum drug concentration that inhibits the growth of 50% of the tested bacteria, and MIC90 refers to the minimum drug concentration that inhibits the growth of 90% of the tested bacteria.
(§2) Antibacterial drug: ceftobiprole, manufacturer: Shenyang Sanjiu Pharmaceutical, content: 92.1%, batch number: YF/BALP141/000. Zidebactam, manufacturer: Target M01 company, batch number: 149661. Zidebactam, as described above, the English name is Zidebactam, and the chemical name is: (2S,5R)-7-oxo-2-(2-((R)-piperidine-3-carbonyl)hydrazine-1-carbonyl)-1,6-diazabicyclo[3.2.1]octan-6-yl hydrogen sulfate.
(§3) Tested strains: a total of 24 genotypic strains producing KPC or OXA β-lactamase. Specifically, the tested strains include 24 strains of Klebsiella pneumoniae, including 12 KPC-2 producing strains and 12 OXA-232 producing strains.
(§4) Quality control strains: Escherichia coli ATCC 25922, (KPC-2 producing) Klebsiella pneumoniae ATCC BAA-1705, and (NDM-1 producing) Klebsiella pneumoniae ATCC BAA-2146.
(§5) Medium: cation-adjusted Mueller-Hinton broth (CAMHB), a product of BBL Company, USA.
(§6) Inoculum size: Pure isolated colonies were adjusted with normal saline to 0.5 McFarland turbidity. After appropriate dilution, the suspension was added to the wells of a 96-well U-bottom microplate (containing 50 µL antibacterial drug solution). The inoculum size was 5 × 10^5 CFU/mL.
(§7) Culture conditions: air environment, 35°C ± 2°C, 16 to 20 hours.
(§8) Preparation of Antibacterial Drug Solution : Ceftobiprole and zidebactam were taken separately, dissolution and dilution were performed according to the antibacterial drug reference to the CLSI standards and the drug package insert, A1 to A6, a total of 6 groups of antibacterial drug solutions, were prepared, among which, group A1 was the control group containing solely the single agent ceftobiprole, and group A2 was the control group containing solely the single agent zidebactam. Different antibacterial drug solutions with ceftobiprole concentrations ranging from 128 mg/L to 0.06 mg/L were respectively included in groups A1 and A3 to A6, and different antibacterial drug solutions with zidebactam concentrations ranging from 128 mg/L to 0.06 mg/L were included in group A2. The specific concentrations within the range of 128 mg/L to 0.06 mg/L in groups A1 to A6 were respectively 128 mg/L, 64 mg/L, 32 mg/L, 16 mg/L, 8 mg/L, 4 mg/L, 2 mg/L, 1 mg/L, 0.5 mg/L, 0.25 mg/L, 0.125 mg/L, or 0.06 mg/L, respectively. Table 1. Concentrations of ceftobiprole/zidebactam contained in the antibacterial drug solutions of groups A1 to A6
(§9) Experimental results: Currently, there are no established CLSI or EUCAST breakpoints for ceftobiprole/β-lactamase inhibitor. Therefore, the antibacterial activity of ceftobiprole/β-lactamase inhibitor is evaluated in accordance with the standards for ceftobiprole. WHONET 5.6 software is used to perform statistical analysis on the results of antibacterial susceptibility test. The fractional inhibitory concentration index (FIC) for the combination of ceftobiprole and zidebactam is calculated according to Equation (1). FIC index = (MIC of drug A in combination)/(MIC of drug A alone) + (MIC of drug B in combination)/(MIC of drug B alone) [formula]
(§10) In Equation (1), drug A is ceftobiprole, and drug B is zidebactam. […] Table 2. In vitro antibacterial activity of ceftobiprole/zidebactam against the tested bacteria in Example 1 […]

[2] = test system: KPC-2 producing Klebsiella pneumoniae; assay: as above; type: cell-based; set-up: Drug concentration: unit: mg/L; details: for MIC range / Mode / MIC50 / MIC90: 12 strains; for MIC range / MIC50 / MIC90: MIC = ceftobiprole concentration (groups A2, B2, C2, D2, E2: inhibitor alone); for Mode: mode of MIC; for antibacterial activity: verdict in words; for Drug concentration: unit not given in Table 3
Excerpt: as §1, §2, §3, §4, §5, §6, §7, §8, §9, §10

[3] = Klebsiella pneumoniae, read-out: MIC50
[4] = Klebsiella pneumoniae, read-out: MIC90
[5] = strain 20-W4-001 (kpn, OXA-232)
[6] = strain 20-W4-002 (kpn, OXA-232)
[7] = strain 20-W4-003 (kpn, OXA-232)
[8] = strain 20-W4-004 (kpn, OXA-232)
[9] = strain 20-W4-005 (kpn, OXA-232)
[10] = strain 20-W4-007 (kpn, OXA-232)
[11] = strain 20-W4-008 (kpn, OXA-232)
[12] = strain 20-W4-009 (kpn, OXA-232)
[13] = strain 20-W4-010 (kpn, OXA-232)
[14] = strain 20-W4-011 (kpn, OXA-232)
[15] = strain 20-W4-012 (kpn, OXA-232)
[16] = strain 20-W4-013 (kpn, OXA-232)

## (3R,6S)-2-hydroxy-3-[[2-(2-thienyl)acetyl]amino]-1,2-oxaborinane-6-acetic acid [Group B2]
[1]
  MIC range: >128 µg/mL
  Mode: >128 mg/L
  antibacterial activity: no antibacterial activity
[1]; MIC >128 mg/L
  Cumulative inhibition rate (%): 100%
  Cumulative number of strains: 12
  Number of strains: 12
[2]
  MIC range: >128 µg/mL
  Mode: >128 mg/L
  antibacterial activity: no antibacterial activity
[2]; MIC >128 mg/L
  Cumulative inhibition rate (%): 100%
  Cumulative number of strains: 12
  Number of strains: 12

## O=C(NC1CCNCC1)[C@@H]1CC[C@@H]2CN1C(=O)N2OS(=O)(=O)O [Group C2, (1R,2S,5R)-7-oxo-2-(piperidin-4-ylcarbamoyl)-1,6-diazabicyclo[3.2.1]octan-6-yl hydrogen sulfate]
[1]
  MIC50: > 128 µg/mL
  MIC90: > 128 µg/mL
  Mode: >128 mg/L
  antibacterial activity: no antibacterial activity
[1]; MIC 128 mg/L
  Cumulative inhibition rate (%): 41.7%
  Cumulative number of strains: 5
  Number of strains: 5
[1]; MIC >128 mg/L
  Cumulative inhibition rate (%): 100%
  Cumulative number of strains: 12
  Number of strains: 7
[2]; [3]
  MIC50: > 128 µg/mL
[2]; [4]
  MIC90: > 128 µg/mL
[2]; MIC 128 mg/L
  Cumulative inhibition rate (%): 25%
  Cumulative number of strains: 3
  Number of strains: 3
[2]; MIC >128 mg/L
  Cumulative inhibition rate (%): 100%
  Cumulative number of strains: 12
  Number of strains: 9
[2]
  Mode: >128 mg/L
  antibacterial activity: no antibacterial activity

## Nc1nc(/C(=N/O)C(=O)N[C@@H]2C(=O)N3C(C(=O)O)=C(/C=C4\CCN([C@@H]5CCNC5)C4=O)CS[C@H]23)ns1 [Group A1, (6R,7R)-7-((Z)-2-(5-amino-1,2,4-thiadiazol-3-yl)-2-(hydroxyimino)acetamido)-8-oxo-3-((E)-((R)-2-oxo-[1,3'-bipyrrolidin]-3-ylidene)methyl)-5-thia-1-azabicyclo[4.2.0]oct-2-ene-2-carboxylic acid]
[1]
  MIC range: >128 µg/mL
  MIC50: ≥ 128 µg/mL
  MIC90: ≥ 128 µg/mL
  Mode: >128 mg/L
  antibacterial activity: no antibacterial activity
[1]; MIC >128 mg/L
  Cumulative inhibition rate (%): 100%
  Cumulative number of strains: 12
  Number of strains: 12
[1]; [5]
  Drug concentration: >128
[1]; [6]
  Drug concentration: >128
[1]; [7]
  Drug concentration: >128
[1]; [8]
  Drug concentration: >128
[1]; [9]
  Drug concentration: >128
[1]; [10]
  Drug concentration: >128
[1]; [11]
  Drug concentration: >128
[1]; [12]
  Drug concentration: >128
[1]; [13]
  Drug concentration: >128
[1]; [14]
  Drug concentration: >128
[1]; [15]
  Drug concentration: >128
[1]; [16]
  Drug concentration: >128
[2]
  MIC range: >128 µg/mL
  Mode: >128 mg/L
  antibacterial activity: no antibacterial activity
[2]; listed as Group Al
  MIC50: >128 µg/mL
  MIC90: >128 µg/mL
[2]; [3]
  MIC50: ≥ 128 µg/mL
[2]; [4]
  MIC90: ≥ 128 µg/mL
[2]; MIC >128 mg/L
  Cumulative inhibition rate (%): 100%
  Cumulative number of strains: 12
  Number of strains: 12
[2]; strain 18-W09-043 (kpn, KPC-2)
  Drug concentration: >128
[2]; strain 18-W09-045 (kpn, KPC-2)
  Drug concentration: >128
[2]; strain 18-W09-046 (kpn, KPC-2)
  Drug concentration: >128
[2]; strain 18-W09-047 (kpn, KPC-2)
  Drug concentration: >128
[2]; strain 18-W09-049 (kpn, KPC-2)
  Drug concentration: >128
[2]; strain 18-W09-050 (kpn, KPC-2)
  Drug concentration: >128
[2]; strain 18-W09-051 (kpn, KPC-2)
  Drug concentration: >128
[2]; strain 18-W13-043 (kpn, KPC-2)
  Drug concentration: >128
[2]; strain 18-W13-044 (kpn, KPC-2)
  Drug concentration: >128
[2]; strain 18-W13-045 (kpn, KPC-2)
  Drug concentration: >128
[2]; strain 18-W13-046 (kpn, KPC-2)
  Drug concentration: >128
[2]; strain 18-W13-047 (kpn, KPC-2)
  Drug concentration: >128

## O=C(NNC(=O)[C@@H]1CC[C@@H]2CN1C(=O)N2OS(=O)(=O)O)[C@@H]1CCCNC1 [Group A2, (2S,5R)-7-oxo-2-(2-((R)-piperidine-3-carbonyl)hydrazine-1-carbonyl)-1,6-diazabicyclo[3.2.1]octan-6-yl hydrogen sulfate]
[1]
  MIC50: 64 µg/mL
  MIC90: > 128 µg/mL
  Mode: >128 mg/L
[1]; MIC 1 mg/L
  Cumulative inhibition rate (%): 8.3%
  Cumulative number of strains: 1
  Number of strains: 1
[1]; MIC 2 mg/L
  Cumulative inhibition rate (%): 16.7%
  Cumulative number of strains: 2
  Number of strains: 1
[1]; MIC 4 mg/L
  Cumulative inhibition rate (%): 33.3%
  Cumulative number of strains: 4
  Number of strains: 2
[1]; MIC 8 mg/L
  Cumulative inhibition rate (%): 41.7%
  Cumulative number of strains: 5
  Number of strains: 1
[1]; MIC 64 mg/L
  Cumulative inhibition rate (%): 50%
  Cumulative number of strains: 6
  Number of strains: 1
[1]; MIC 128 mg/L
  Cumulative inhibition rate (%): 66.7%
  Cumulative number of strains: 8
  Number of strains: 2
[1]; MIC >128 mg/L
  Cumulative inhibition rate (%): 100%
  Cumulative number of strains: 12
  Number of strains: 4
[1]; [5]
  Drug concentration: >128
[1]; [6]
  Drug concentration: >128
[1]; [7]
  Drug concentration: 4
[1]; [8]
  Drug concentration: >128
[1]; [9]
  Drug concentration: 128
[1]; [10]
  Drug concentration: 2
[1]; [11]
  Drug concentration: 64
[1]; [12]
  Drug concentration: 128
[1]; [13]
  Drug concentration: 1
[1]; [14]
  Drug concentration: 8
[1]; [15]
  Drug concentration: >128
[1]; [16]
  Drug concentration: 4
[2]; [3]
  MIC50: > 128 µg/mL
[2]; [4]
  MIC90: > 128 µg/mL
[2]; MIC 1 mg/L
  Cumulative inhibition rate (%): 8.3%
  Cumulative number of strains: 1
  Number of strains: 1
[2]; MIC 128 mg/L
  Cumulative inhibition rate (%): 41.7%
  Cumulative number of strains: 5
  Number of strains: 4
[2]; MIC >128 mg/L
  Cumulative inhibition rate (%): 100%
  Cumulative number of strains: 12
  Number of strains: 7
[2]
  Mode: >128 mg/L
[2]; strain 18-W09-043 (kpn, KPC-2)
  Drug concentration: >128
[2]; strain 18-W09-045 (kpn, KPC-2)
  Drug concentration: >128
[2]; strain 18-W09-046 (kpn, KPC-2)
  Drug concentration: 128
[2]; strain 18-W09-047 (kpn, KPC-2)
  Drug concentration: 128
[2]; strain 18-W09-049 (kpn, KPC-2)
  Drug concentration: >128
[2]; strain 18-W09-050 (kpn, KPC-2)
  Drug concentration: 128
[2]; strain 18-W09-051 (kpn, KPC-2)
  Drug concentration: >128
[2]; strain 18-W13-043 (kpn, KPC-2)
  Drug concentration: >128
[2]; strain 18-W13-044 (kpn, KPC-2)
  Drug concentration: >128
[2]; strain 18-W13-045 (kpn, KPC-2)
  Drug concentration: 128
[2]; strain 18-W13-046 (kpn, KPC-2)
  Drug concentration: >128
[2]; strain 18-W13-047 (kpn, KPC-2)
  Drug concentration: 1
